These results are taken from PubChem BioAssay (NCI).

Common to all, as to experiment: NCI anticancer screen, dose series, 48 h
For assay [1], the system named is SW-620 colon.
The subject of assay [2] is LOX IMVI melanoma.
For assay [3], the system named is NCI-H522 lung.
The subject of assay [4] is OVCAR-8 ovarian.
The subject of assay [5] is SF-539 CNS.
Assay [6] has as its system KM12 colon.
In assay [7] the test system is K-562 leukemia.
In assay [8] the test system is COLO 205 colon.
In assay [9] the test system is SN12C renal.
The subject of assay [10] is UO-31 renal.

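1) Cells in 96-well plates. 2) Compound, 48 h, 5 concentrations. 3) Linear interpolation between surrounding doses. 4) Unreached endpoint = highest concentration. GI50 marks 50% less growth. TGI: total growth inhibition.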

As for `Cc1cc(Cl)cc(OCCn2cc(F)cn2)c1-c1nc(N)nc2c1CN(C(=O)NCC(C)(F)F)C2`, the GI50 was 43 nM in assay [1]; 85.2 nM in assay [2]; 78.1 nM in [3]; 77.6 nM in assay [4]; 181 nM in assay [5]; 50.8 nM in [6]. The GI50 in assay [7] is 51.9 nM; in assay [8], 39.5 nM; in assay [9] it was 74.5 nM; in [10], 682 nM. Also, the TGI in assay [1] is more than 100000 nM; in [2], 552 nM; in assay [3] it was more than 100000 nM; in [4], more than 100000 nM; in [5] it was more than 100000 nM; in assay [6] it was 459 nM. In addition, the TGI is more than 100000 nM in assay [7], 1190 nM in assay [8], more than 100000 nM in assay [9] and more than 100000 nM in assay [10].
